According to patent US10190119B2, “Mitochondrial phosphate carrier targets for treating soft-tissue calcification” (THE BRIGHAM AND WOMEN'S HOSPITAL, INC., priority 2014, dated 2019):

Test system: calcifying extracellular vesicles (EVs)
Assay: Aggregation of calcifying extracellular vesicles in a particle counting device
Conditions: 100 μM NEM, vesicles from smooth muscle cells cultured in calcifying conditions, cell-free, 37° C., FIG. 5
Protocol: Calcification has been previously linked to aggregation of extracellular vesicles. Therefore, vesicles were collected from smooth muscle cells cultured in calcifying conditions and incubated in cell-free conditions at 37° C. within a particle counting device. […] Aggregation of calcifying vesicles was observed by a reduction in total particles counted from 8 h to 20 h of incubation, as shown in FIG. 5. […] Without wishing to be bound by theory, it is hypothesized that this reduction is due to the inhibition of phosphate carriers on the vesicles, which blocks phosphate transport into the vesicles, and in turn preventing mineral formation.

CCN1C(=O)C=CC1=O [NEM, N-ethylmaleimide]
reduction in total particles (vesicle counts) from 8 h to 20 h of incubation: mitigated the reduction in vesicle counts
